Measurements reported in patent US7253293B2, “Enzymatic method to produce 7-dehydropregnenolone, vitamin D3-like compounds and derivatives thereof” (priority 2004, dated 2007).

Tests used:
Human P450scc = molecular target: T1, Human P450scc (Homo sapiens, UniProt P05108); assay: Side-chain cleavage kinetics by human cytochrome P450scc in phospholipid vesicles; type: biochemical; settings: for kcat: substrate and P450scc in dioleoylphosphatidylcholine vesicles containing cardiolipin, ±SE
T1 construct: made in house; host or cells: Escherichia coli
T1 sequence (P05108 40-521): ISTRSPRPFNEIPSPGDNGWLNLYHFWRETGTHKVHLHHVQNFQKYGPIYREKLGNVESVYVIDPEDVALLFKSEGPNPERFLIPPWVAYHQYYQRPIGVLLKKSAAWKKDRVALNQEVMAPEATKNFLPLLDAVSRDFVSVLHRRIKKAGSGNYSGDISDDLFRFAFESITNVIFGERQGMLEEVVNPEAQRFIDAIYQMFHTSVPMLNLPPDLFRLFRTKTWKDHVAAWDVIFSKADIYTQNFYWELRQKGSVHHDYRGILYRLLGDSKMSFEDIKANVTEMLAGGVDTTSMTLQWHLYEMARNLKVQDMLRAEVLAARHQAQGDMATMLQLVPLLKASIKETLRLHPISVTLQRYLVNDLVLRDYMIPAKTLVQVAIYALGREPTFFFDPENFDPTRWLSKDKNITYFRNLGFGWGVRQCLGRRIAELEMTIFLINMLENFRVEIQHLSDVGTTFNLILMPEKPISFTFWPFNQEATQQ
T1 sequence (P10109 61-184 partner): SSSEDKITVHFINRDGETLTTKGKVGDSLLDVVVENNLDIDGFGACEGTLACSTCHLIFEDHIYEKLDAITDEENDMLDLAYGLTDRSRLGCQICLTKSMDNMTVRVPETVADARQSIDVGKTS
Procedure: (§1) Large-scale reactions (50 mL) to cleave the side chain of 7-DHC were performed with purified bovine P450scc and its electron-transfer system in a manner similar to that described for cholesterol (41). The incubation mixture comprised 510 μM phospholipids vesicles (dioleoylphosphatidylcholine plus 15 mol % cardiolipin) with a substrate to phospholipids molar ration of 0.2 50 μM NADPH, 2 mM glucose 6-phosphate, 2 U-mL^−1 glucose 6-phosphate dehydrogenase, 0.3 μM adrenodoxin reductase, 6.5 μM adrenodoxin, 1.0 μM cytochrome P450scc and buffer, pH 7.4 (41). After incubation at 37° C. for 3 h, the mixture was extracted three times with 50 mL methylene chloride and dried under nitrogen at 35° C. Products were purified by preparative TLC on silica gel G with three developments in hexane/ethyl acetate (3:1 v/v) and products eluted from the silica gel with chloroform/methanol (1:1, v/v). Samples were dried under nitrogen and shipped for analysis on dry ice. Small-scale reactions (0.25 mL) to determine the kinetics of 7-DHC and cholesterol metabolism were performed with either bovine or human cytochrome P450scc as described for cholesterol (41). The amount of 7-DHP produced from 7-DHC was measured by RIA [25] using purified 7-DHP as standard.
Table 2 contains the kinetic parameters for side-cahin cleavage of 7-DHC and cholesterol by bovine and human cytochromes P450scc. Kinetic parameters were determined with substrates and P450scc incorporated into dioleoylphosphatidylcholine (PL) vesicles containing cardiolipin. Values for Kcat and Km are ±SE and are expressed as min^−1 and mol sterol-mol PL^−1, respectively. They were obtained from fitting hyperbolic curves to the kinetic data using […].

Bovine P450scc [1] = molecular target: T2, Bovine P450scc (Bos taurus, UniProt P00189); assay: Side-chain cleavage kinetics by bovine cytochrome P450scc in phospholipid vesicles; type: biochemical; settings: for kcat: substrate and P450scc in dioleoylphosphatidylcholine vesicles containing cardiolipin, ±SE
T2 construct: isolated from adrenals; from tissue; host or cells: bovine adrenals
T2 sequence (P00189 40-520): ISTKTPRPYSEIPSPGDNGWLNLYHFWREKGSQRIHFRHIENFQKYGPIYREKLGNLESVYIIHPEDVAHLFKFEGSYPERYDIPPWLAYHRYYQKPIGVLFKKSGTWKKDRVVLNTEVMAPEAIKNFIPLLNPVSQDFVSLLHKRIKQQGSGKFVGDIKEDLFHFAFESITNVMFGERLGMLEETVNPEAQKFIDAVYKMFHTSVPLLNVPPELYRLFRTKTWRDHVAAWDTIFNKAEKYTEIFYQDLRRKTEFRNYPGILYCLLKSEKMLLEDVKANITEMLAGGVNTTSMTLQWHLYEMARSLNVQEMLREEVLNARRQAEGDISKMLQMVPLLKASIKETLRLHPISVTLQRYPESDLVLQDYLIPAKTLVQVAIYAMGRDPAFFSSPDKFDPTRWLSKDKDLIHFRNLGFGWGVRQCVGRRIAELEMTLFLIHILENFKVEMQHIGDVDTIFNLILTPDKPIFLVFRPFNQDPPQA
T2 sequence (P00257 59-186 partner): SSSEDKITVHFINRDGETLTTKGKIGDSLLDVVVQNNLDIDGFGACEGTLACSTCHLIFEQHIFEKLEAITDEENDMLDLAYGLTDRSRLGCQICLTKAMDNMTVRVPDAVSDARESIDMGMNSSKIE
Procedure: as §1
Table 2 contains the kinetic parameters for side-cahin cleavage of 7-DHC and cholesterol by bovine and human cytochromes P450scc. Kinetic parameters were determined with substrates and P450scc incorporated into dioleoylphosphatidylcholine (PL) vesicles containing cardiolipin. Values for Kcat and Km are ±SE and are expressed as min^−1 and mol sterol-mol PL^−1, respectively. They were obtained from fitting hyperbolic curves to the kinetic data using KALEIDAGRAPH.

Bovine P450scc [2] = molecular target: T2, Bovine P450scc; settings: 2-hydroxypropyl-β-cyclodextrin; cited from earlier work
MLN64 and StAR = settings: reconstituted in vitro system; compared with cholesterol; cited from earlier work
[3] = system: mitochondria from skin cells; assay: Side-chain cleavage of radiolabelled cholesterol by mitochondria isolated from skin cells; type: biochemical; settings: for conversion relative to that reported for placental mitochondria: cutaneous mitochondria versus literature value for placental mitochondria
Procedure: Mitochondrial fractions of the test tissue, i.e., skin, adrenals or placenta, were prepared by homogenizing the tissue in 5 vols ice-cold 0.25 M sucrose containing protease inhibitor cocktail (Sigma) (38). The homogenate was centrifuged at 600 g for 10 min at 4° C., and the resulting supernatant was centrifuged at 6000 g (placenta) or 9000 g (skin and adrenals) for 20 min at 4° C. to sediment the mitochondrial fraction. The pellet was resuspended in 0.25 M sucrose, and the mitochondrial fraction was again sedimented under the same conditions. The washed mitochondrial fraction was resuspended in 0.25 M sucrose and used for enzymatic reaction. For cultured skin cells, the above procedure was carried out after the cells had been swelled for 30 min in 20 mM HEPES, pH 7.4, before homogenization.
[4-^14C]Cholesterol (58 mCi.mmol^−1; Amersham Bioscience) was purified before its use as a substrate by mitochondria, by TLC on silica gel G plates in hexane/acetone (7:3, v/v). Isolated mitochondria (0.5 mg protein) were then preincubated (15 min at 37° C.) with purified [4-^14C]cholesterol (1 μCi, 34 μM) in 0.5 mL medium comprising 0.25M sucrose, 50 mM HEPES, pH 7.4, 20 mM KCl, 5 mM MgSO4, 0.2 mM EDTA, 0.4 μM adrenodoxin reductase, 6 μM adrenodoxin, 5 μM N-62 StAR protein (gift from W. Miller, University of California, San Francisco, Calif., USA) and 8 μM cyanoketone. The reaction was started by adding NADPH (0.5 mM) and isocitrate (5 mM), and samples were incubated at 37° C. for 150 min. The reaction was stopped by the addition of 1 mL ice-cold methylene chloride, and the incubation mixture extracted twice more with 1 mL methylene chloride. The fractions were combined, dried under nitrogen, and subjected to TLC on silica gel G plates and developed with hexane/acetone (7:3, v/v). Radiolabelled products were visualized using a phosphoimager, the steroids eluted from the plate with chloroform/methanol (1:1, v/v), and the associated radioactivity measured by scintillation counting.

[4] = cutaneous mitochondria, 34 μM substrate, 150 min at 37° C.

With CC(C)CCC[C@@H](C)[C@H]1CC[C@H]2C3=CC=C4C[C@@H](O)CC[C@]4(C)[C@H]3CC[C@]12C [7-DHC, cholesta-5,7-dien-3β-ol] the “kcat relative to that for cholesterol” value (Human P450scc) was 70%, the kcat (Human P450scc) was 0.222 ± 0.0067 s⁻¹ and the kcat (Bovine P450scc [1]) was 0.407 ± 0.0183 s⁻¹. For the same molecule, the “kcat relative to that for cholesterol” value (Bovine P450scc [1]; substrate dissolved in membrane of phospholipid vesicles) was 62%, the “Vmax compared with cholesterol” value (Bovine P450scc [2]) was “same Vmax for 7-DHC and cholesterol” and the “efficiency of transport from donor to acceptor vesicles” value (MLN64 and StAR) was “efficiency similar to that for cholesterol”.

CC(C)CCC[C@@H](C)[C@H]1CC[C@H]2[C@@H]3CC=C4C[C@@H](O)CC[C@]4(C)[C@H]3CC[C@]12C [Cholesterol, cholesterol] gave a kcat (Human P450scc) of 0.317 ± 0.0067 s⁻¹ and a kcat (Bovine P450scc [1]) of 0.655 ± 0.0283 s⁻¹.

For CC(C)CCC[C@@H](C)[C@H]1CC[C@H]2[C@@H]3CC=C4[14CH2][C@@H](O)CC[C@]4(C)[C@H]3CC[C@]12C [[4-^14C]cholesterol, [4-^14C]Cholesterol], the “conversion relative to that reported for placental mitochondria” value [3] was roughly 1%, the “conversion relative to that reported for placental mitochondria” value ([3]; listed as [4-^14C]-cholesterol) was “approximately 1%” and the “rate of conversion into pregnenolone” value [3, 4] was 0.14%. The “rate of conversion into progesterone” value [3, 4] was 0.04%.
